Assay: Tacrolimus tissue pharmacokinetics, oral vs intra-cecal ingestible device delivery
Type: in vivo, Yorkshire-Cross farm swine
Conditions: swine; intra-cecally vs orally administered; 12 hours post-dose; FIG. 76
Method: The primary objective of this study was to compare the tissue, plasma, rectal sample, and GI content pharmacokinetics of tacrolimus through oral versus intra-cecal ingestible device delivery in normal Yorkshire-Cross farm swine.
No further randomization procedure was employed.
Animals in Group 1 received an ingestible device containing 0.8 mL of vehicle solution (80% alcohol, 20% HCO-60). Animals in Group 2 received orally […] liquid formulation of tacrolimus at 4 mg/0.8 mL per animal (Prograf: 5 mg/mL). Animals in Group 3 received intra-cecally an ingestible device containing tacrolimus at 1 mg in 0.8 mL per ingestible device. Animals in Group 4 received intra-cecally an ingestible device containing tacrolimus at 2 mg in 0.8 mL per ingestible device. Animals in Group 5 received intra-cecally an ingestible device containing tacrolimus at 4 mg in 0.8 mL per ingestible device. […]
For tissue necropsy, small intestine fluid and cecal fluid were collected separately from all the animals into two separate square plastic bottles, and stored at −20° C. The length and diameter of the cecum and the colon was measured from one animal in each group and recorded for reference. […] All samples were weighed, and the tissue sample weights were recorded. […] Around 3 grams of the total punched sample were collected into a pre-weighed 15-mL conical tube, and the tissue weight was recorded. […]

mean concentration of tacrolimus in the cecum tissue and the proximate colon tissue: higher
SMILES: C=CC[C@@H]1/C=C(\C)C[C@H](C)C[C@H](OC)[C@H]2O[C@@](O)(C(=O)C(=O)N3CCCC[C@H]3C(=O)O[C@H](/C(C)=C/[C@@H]3CC[C@@H](O)[C@H](OC)C3)[C@H](C)[C@@H](O)CC1=O)[C@H](C)C[C@@H]2OC [tacrolimus]

Reference: patent US11857669B2, “Treatment of a disease of the gastrointestinal tract with a JAK inhibitor and devices” (BIORA THERAPEUTICS, INC., priority 2016, dated 2024)
